Test results taken from patent publication US20140329868A1, “METHODS FOR TREATING HYPERTENSION” (TAKEDA PHARMACEUTICALS U.S.A., INC., priority 2005, published 2014).

What was measured:
[1] = tested on: subjects having a systolic BP≧160 mmHg or diastolic BP≧95 mmHg (elevated blood pressure); assay: Example 1: blood pressure change in subjects with elevated blood pressure, none taking antihypertensive agents at baseline (two double-blind studies); type: in vivo, human
Experimental: A total of 103 subjects (9 in the placebo group, 26 in each the 2-[3-cyano-4-(2-methylpropoxy)phenyl]-4-methylthiazole-5-carboxylic acid (hereinafter referred to as “febuxostat”) 80 mg and 120 mg once daily (hereinafter referred to as “QD”) groups, 10 in the febuxostat 240 mg QD group and 32 in the 4-hydroxy-3,4-pyrazolopyrimidine (hereinafter referred to as “allopurinol”) 300/100 mg QD group), having a systolic BP≧160 mmHg or diastolic BP≧95 mmHg, and thus considered to have “elevated blood pressure”, were examined. Allopurinol […] xanthine oxidoreductase inhibitor.
None of the above subjects were taking any antihypertensive agents at the baseline (start) of the study. These […] subjects were part of two (2) double-blind (hereinafter referred to as “DB”) studies. One study was of 28 weeks in duration. During this time, the subjects received 80 mg, 120 mg or 240 mg QD of febuxostat, placebo or allopurinol 300 or 100 mg QD, depending on the subject's renal function. The second study was 52 weeks in duration. During this time, the subjects received 80 mg or 120 mg QD of febuxostat or allopurinol 300 mg QD.

[2] = tested on: subjects having a systolic BP≧160 mmHg or diastolic BP≧95 mmHg (elevated blood pressure); assay: Example 2: blood pressure change in subjects with elevated blood pressure, none taking angiotensin-converting enzyme inhibitors (two double-blind studies); type: in vivo, human
Experimental: None of these subjects were taking any angiotensin-coverting enzyme inhibitors, but might have been taking some other type of antihypertensive drug at the baseline (start) of the study. These 158 subjects were part of two (2) DB studies. One study was of 28 weeks in duration during which subjects received 80 mg, 120 mg or 240 mg QD of febuxostat or placebo or allopurinol 300 or 100 mg QD, depending on the subject's renal function. The second study was 52 weeks in duration during which subjects received 80 mg or 120 mg QD of febuxostat or allopurinol 300 mg QD. […] A total of 52 weeks of treatment was completed by 15 subjects in the febuxostat 80 mg QD group, 9 in the febuxostat 120 mg QD group and 17 in the allopurinol 300/100 mg QD group. Because of the shorter duration of one of the two DB studies, no subject in the placebo and febuxostat 240 mg QD groups was treated for 52 weeks.

[3] = tested on: oxonic acid (OA)-induced hyperuricemic model in Sprague-Dawley rats; assay: Example 4: plasma uric acid in normal and OA-dosed rats; type: in vivo
Experimental: Materials and Methods. To produce hyperuricemia, rats received OA (Sigma, St Louis Mo., USA) 750 mg/kg body weight daily by gastric gavage. To investigate the treatment effect of febuxostat (also referred to herein as “Fx”), the drug was administered in drinking water at 50 mg/L (approximately 5-6 mg/kg/day) four weeks after OA dosing while the respective controls received 5.84 mg/L of NaCl in drinking water (to maintain a salt concentration equivalent to the Febuxostat-containing water). […] Body weight, food and water intakes were measured daily. Systolic blood pressure, obtained in conscious rats by a tail cuff sphygmomanometer, and plasma uric acid were measured in all animals at baseline and at the end of four and eight weeks. […]
Evaluation. Food and water intake were determined daily. Systolic blood pressure (hereinafter “SBP”) was measured in conscious animals by a tail cuff sphygmomanometer using an automated system (XBP-100, Kent Scientific Co, USA). […] Plasma UA, insulin and triglycerides were quantified using commercial kits (Diagnostic Chemicals Ltd, USA; Crystalchem, USA and Spinreact, Spain, respectively).
Statistical Analysis. Values were expressed as mean±standard error of the mean (hereinafter “SEM”). In the study, values from the respective four treatment groups were analyzed by one-way analysis of variance (hereinafter “ANOVA”). […]

[4] = 80 mg QD, after 4 weeks of treatment
[5] = 80 mg QD, after 28 weeks of treatment
[6] = 80 mg QD, after 52 weeks of treatment
[7] = 120 mg QD, after 4 weeks of treatment
[8] = 120 mg QD, after 28 weeks of treatment
[9] = 120 mg QD, after 52 weeks of treatment
[10] = 240 mg QD, after 4 weeks of treatment
[11] = 240 mg QD, after 28 weeks of treatment

Cc1nc(-c2ccc(OCC(C)C)c(C#N)c2)sc1C(=O)O [febuxostat, 2-[3-cyano-4-(2-methylpropoxy)phenyl]-4-methylthiazole-5-carboxylic acid]
mean change from baseline for diastolic BP [1, 4]: −3.7 mmHg
mean change from baseline for mean arterial BP [1, 4]: −5.2 mmHg
mean change from baseline for systolic BP [1, 4]: −8.2 mmHg
mean change from baseline for diastolic BP [1, 5]: −10.2 mmHg
mean change from baseline for mean arterial BP [1, 5]: −11.1 mmHg
mean change from baseline for systolic BP [1, 5]: −13.0 mmHg
mean change from baseline for diastolic BP [1, 6]: −12.3 mmHg
mean change from baseline for mean arterial BP [1, 6]: −12.7 mmHg
mean change from baseline for systolic BP [1, 6]: −13.4 mmHg
mean change from baseline for diastolic BP [1, 7]: −8.4 mmHg
mean change from baseline for mean arterial BP [1, 7]: −9.3 mmHg
mean change from baseline for systolic BP [1, 7]: −11.0 mmHg
mean change from baseline for diastolic BP [1, 8]: −6.4 mmHg
mean change from baseline for mean arterial BP [1, 8]: −9.0 mmHg
mean change from baseline for systolic BP [1, 8]: −14.2 mmHg
mean change from baseline for diastolic BP [1, 9]: −10.0 mmHg
mean change from baseline for mean arterial BP [1, 9]: −15.2 mmHg
mean change from baseline for systolic BP [1, 9]: −25.8 mmHg
mean change from baseline for diastolic BP [1, 10]: −8.9 mmHg
mean change from baseline for mean arterial BP [1, 10]: −9.3 mmHg
mean change from baseline for systolic BP [1, 10]: −10.0 mmHg
mean change from baseline for diastolic BP [1, 11]: −5.0 mmHg
mean change from baseline for mean arterial BP [1, 11]: −6.0 mmHg
mean change from baseline for systolic BP [1, 11]: −8.0 mmHg
mean change from baseline for diastolic BP [2, 4]: −4.7 mmHg
mean change from baseline for mean arterial BP [2, 4]: −5.5 mmHg
mean change from baseline for systolic BP [2, 4]: −7.2 mmHg
mean change from baseline for diastolic BP [2, 5]: −8.7 mmHg
mean change from baseline for mean arterial BP [2, 5]: −9.2 mmHg
mean change from baseline for systolic BP [2, 5]: −10.4 mmHg
mean change from baseline for diastolic BP [2, 6]: −8.1 mmHg
mean change from baseline for mean arterial BP [2, 6]: −8.5 mmHg
mean change from baseline for systolic BP [2, 6]: −9.5 mmHg
mean change from baseline for diastolic BP [2, 7]: −7.2 mmHg
mean change from baseline for mean arterial BP [2, 7]: −7.6 mmHg
mean change from baseline for systolic BP [2, 7]: −8.3 mmHg
mean change from baseline for diastolic BP [2, 8]: −7.5 mmHg
mean change from baseline for mean arterial BP [2, 8]: −8.7 mmHg
mean change from baseline for systolic BP [2, 8]: −11.0 mmHg
mean change from baseline for diastolic BP [2, 9]: −7.2 mmHg
mean change from baseline for mean arterial BP [2, 9]: −11.3 mmHg
mean change from baseline for systolic BP [2, 9]: −19.4 mmHg
mean change from baseline for diastolic BP [2, 10]: −9.3 mmHg
mean change from baseline for mean arterial BP [2, 10]: −12.5 mmHg
mean change from baseline for systolic BP [2, 10]: −18.9 mmHg
mean change from baseline for diastolic BP [2, 11]: −10.0 mmHg
mean change from baseline for mean arterial BP [2, 11]: −12.9 mmHg
mean change from baseline for systolic BP [2, 11]: −18.8 mmHg
plasma uric acid levels (effect in words) ([3]; OA-dosed rats, febuxostat added beginning at 4 weeks, FIG. 1): reduced the uric acid levels back into the normal range
uric acid levels relative to control ([3]; normal rats receiving febuxostat, difference not statistically significant): approximately 53 % of control values
